The target in test [1] is T1, BRD4 BD2 (Homo sapiens, UniProt O60885).
T1 construct: made in house
Briefly: AlphaScreen binding assay, BRD4 Bromodomain 2. The essentials:
(§1)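 An AlphaScreen competition format was used with His-BRD4 BD1 or BD2 and biotin-H4 K5/8/12/16-acetyl peptide, each at matched final levels of 50 nM (BD1) or 100 nM (BD2). Incubation in HEPES/NaCl buffer with 0.1% BSA and 0.01% Triton X-100 ran ≥1 h before IC50 determination.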

Test [2] deals with T2, BRD4 BD1 (Homo sapiens, UniProt O60885).
T2 construct: made in house
Briefly: AlphaScreen binding assay, BRD4 Bromodomain 1. The gist of the method:
as §1
A general note: In Alpha technology, singlet oxygen from a donor bead excites a nearby acceptor bead.

For test [3], the system named is MV4-11 cells. Briefly: Oncology cell growth assay (3-day proliferation, CellTiter-Glo). In kind it is cell-based. To be noted: Homo sapiens, AML cell line MV4-11, 72 hours, compounds grouped by IC50 range, read-out: MV4-11 IC50 (inhibition of proliferation, gIC50). The essentials: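 MV4-11 AML cells (RPMI 1640, 10% FBS) plated at 3000 cells/well and exposed 72 h to compound at final 10 to 0.0045 μM (3-fold series). Viability read by CellTiter-Glo luminescence; gIC50 from four-parameter logistic fit between DMSO control and no-cell background.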
On the technique in general: ATP-based viability assays read luminescence as a measure of living cells.

Like-named read-outs stand apart in the source and are kept apart here.

In the case of `C[C@H]1CN(C(=O)c2ccco2)c2cc(-c3ccc(S(C)(=O)=O)cc3)ccc2N1C(=O)C1CC1` [Example I-364], the IC50 is < 50 nM in test [1]; 100 to 1000 nM in test [2]; 100 to 500 nM in test [3] (MV4-11, 72 h).
`COC(=O)N1c2ccc(-c3cnn(CC(C)(C)O)c3)cc2N(C(=O)OC(C)C)C[C@@H]1C` [Example I-329]: the IC50 was 50 to 500 nM in test [1]; 100 to 1000 nM in test [2]; 100 to 500 nM in test [3] (MV4-11, 72 h).
Taken in the same sequence, the figures for `CC(=O)N1c2ccc(-c3cnn(C4CCNCC4)c3)cc2N(C(=O)C2CC2)C[C@@H]1C` [Example I-359] were < 50 nM, 1000 to 10000 nM and 100 to 500 nM.
With `CC(=O)N1c2ccc(-c3ccc(S(C)(=O)=O)cc3)cc2N(C(=O)c2cc3cnccc3[nH]2)CC1C` (stereo not drawn) [Example I-778], the IC50 in test [1] was 50 to 500 nM; in test [2], 1000 to 10000 nM; in test [3] (MV4-11, 72 h), > 500 nM.
Turning to `COC(=O)N1c2ccc(-c3cnn(Cc4cncnc4)c3)cc2N(C(=O)OC(C)C)C[C@@H]1C` [Example I-632], the IC50 in test [1] is 50 to 500 nM; in test [2] it was 100 to 1000 nM; in test [3] (MV4-11, 72 h), 100 to 500 nM.
Regarding `CC(=O)N1c2ccc(-c3cnn(CC(F)F)c3)cc2N(C(=O)OC(C)C)C[C@@H]1C` [Example I-135, (S)-isopropyl 4-acetyl-7-(1-(2,2-difluoroethyl)-1H-pyrazol-4-yl)-3-methyl-3,4-dihydroquinoxaline-1(2H)-carboxylate], the IC50 in test [1] was in the range of 50 to 500 nM; in test [2], 100 to 1000 nM; in test [3] (MV4-11, 72 h), 100 to 500 nM.
`CC(=O)N1c2ccc(-c3cc(Cl)cc(S(C)(=O)=O)c3)cc2N(C(=O)OC2CCCCC2)C[C@@H]1C` [Example I-1247]: the IC50 in test [1] is > 500 nM; in test [2] it was 1000 to 10000 nM; in test [3] (MV4-11, 72 h), > 500 nM.
Turning to `CC(C)OC(=O)N1C[C@H](C)N(C(=O)C2CC2)c2ccc(-c3ccc(S(=O)(=O)CCO)cc3)cc21` [Example I-479], the IC50 in test [1] is > 500 nM; in test [2], 100 to 1000 nM; in test [3] (MV4-11, 72 h), > 500 nM.
Regarding `CCOC(=O)N1C[C@H](C)N(C(C)=O)c2ccc(-c3cccc(N4CCCS4(=O)=O)c3)cc21` [Example I-1162], the IC50 is 50 to 500 nM in test [1]; 100 to 1000 nM in test [2]; > 500 nM in test [3] (MV4-11, 72 h).
Taken in the same sequence, the figures for `CC(=O)N1c2ccc(-c3ccc(N4CCCC4=O)cc3)cc2N(C(=O)C2CCC2)C[C@@H]1C` [Example I-1132] were 50 to 500 nM, 1000 to 10000 nM and 100 to 500 nM.
`COCCn1cc(-c2ccc3c(c2)N(C(=O)OC(C)C)C[C@H](C)N3C(C)=O)cn1` [Example I-17, (S)-isopropyl 4-acetyl-7-(1-(2-methoxyethyl)-1H-pyrazol-4-yl)-3-methyl-3,4-dihydroquinoxaline-1(2H)-carboxylate]: the IC50 is < 50 nM in test [1]; 100 to 1000 nM in test [2]; 100 to 500 nM in test [3] (MV4-11, 72 h).
For the compound `CNC(=O)N1c2ncc(-c3cnn(C4CC4)c3)cc2N(C(=O)OC(C)C)C[C@@H]1C` [Example I-194, (S)-isopropyl 7-(1-cyclopropyl-1H-pyrazol-4-yl)-3-methyl-4-(methylcarbamoyl)-3,4-dihydropyrido[2,3-b]pyrazine-1(2H)-carboxylate], the IC50 in test [1] was 50 to 500 nM; in test [2], 1000 to 10000 nM; in test [3], > 500 nM.
As for `CC(=O)N1c2ccc(-c3cnn(Cc4ccno4)c3)cc2N(C(=O)C2CC2)C[C@@H]1C` [Example I-663], the IC50 in test [1] lay within 50 to 500 nM; in test [2], 100 to 1000 nM; in test [3] (MV4-11, 72 h), 100 to 500 nM.
Taken in the same sequence, the figures for `CC(=O)N1c2ccc(-c3ccc(S(=O)(=O)N(C)C)cc3)cc2N(C(=O)OC2CCCCC2)C[C@@H]1C` [Example I-1263] were 50 to 500 nM, 100 to 1000 nM and 100 to 500 nM.
Taken in the same sequence, the figures for `CC(=O)N1c2ccc(-c3ccc(N4CCCS4(=O)=O)cc3)cc2N(C(=O)C2CC2)C[C@@H]1C` [Example I-439] were 50 to 500 nM, 100 to 1000 nM and 100 to 500 nM.

The values above are taken from US10703764B2, “Benzopiperazine compositions as BET bromodomain inhibitors” (FORMA Therapeutics, Inc., priority 2013, dated 2020).
